This note sets out measurements from ChEMBL document CHEMBL3351979, “Total Synthesis and Biological Studies of TMC-205 and Analogues as Anticancer Agents and Activators of SV40 Promoter” (ACS Med Chem Lett, 2014).

The test system of data set [1] is HeLa. Kind of data set: Induction of SV40 promoter-mediated luciferase gene expression in human HeLa cells after 24 hrs by RT-PCR analysis. Format: cell-based. The note with it: Betapolyomavirus macacae.
In data set [2] the target is T1, Luciferin 4-monooxygenase (Luciola lateralis) (UniProt Q01158).
T1 sequence (whole entry): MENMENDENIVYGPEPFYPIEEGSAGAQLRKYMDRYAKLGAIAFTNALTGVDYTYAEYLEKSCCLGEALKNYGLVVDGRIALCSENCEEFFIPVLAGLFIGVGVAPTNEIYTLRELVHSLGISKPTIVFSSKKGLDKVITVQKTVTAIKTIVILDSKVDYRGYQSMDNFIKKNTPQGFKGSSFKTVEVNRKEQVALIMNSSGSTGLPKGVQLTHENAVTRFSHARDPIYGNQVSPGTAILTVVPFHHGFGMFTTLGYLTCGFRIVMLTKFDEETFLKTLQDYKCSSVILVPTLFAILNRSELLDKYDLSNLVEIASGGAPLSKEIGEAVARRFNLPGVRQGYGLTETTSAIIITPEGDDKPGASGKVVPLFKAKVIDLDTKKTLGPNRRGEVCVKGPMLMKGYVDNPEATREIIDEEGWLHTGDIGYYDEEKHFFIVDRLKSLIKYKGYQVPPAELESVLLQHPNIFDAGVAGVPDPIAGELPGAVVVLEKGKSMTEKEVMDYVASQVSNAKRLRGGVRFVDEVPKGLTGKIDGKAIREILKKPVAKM
The experiment in a line: Inhibition of recombinant firefly luciferase at 0.0001 to 100 uM by […] in presence of varying concentration of ATP. The following applies: Aquatica lateralis.

For data set [3], the system named is HeLa. Kind of data set: Induction of SV40 promoter-mediated luciferase gene expression in human HeLa cells co-expressing SV40 enhancer at 0.01 to 100 uM after 24 hrs by luminescence assay. The data set is classed as cell-based. The following applies: Betapolyomavirus macacae.
Data set [4] concerns the target T1, Luciferin 4-monooxygenase (Luciola lateralis). Kind of data set: Inhibition of recombinant firefly luciferase at 0.0001 to 100 uM by […] in presence of varying concentration of D-luciferin. The note with it: Aquatica lateralis.
Data set [5] has as its system HeLa. Kind of data set: Growth inhibition of human HeLa cells at 0.01 to 100 uM after 24 hrs. The data set is classed as cell-based.
The nature of data set [6]: Antiproliferative activity against human HCT116 cells assessed as growth inhibition after 72 hrs by MTS assay. The data set is classed as functional. The following applies: HCT-116, 72 h. For orientation: Tetrazolium assays rely on reduction of a dye to a coloured formazan, in cell work by metabolically active cells.
The subject of data set [7] is HeLa. Kind of data set: Induction of SV40 promoter-mediated luciferase gene expression in human HeLa cells at 0.01 to 100 uM after 24 hrs by luminescence assay. The following applies: Betapolyomavirus macacae. The data set is classed as cell-based.
A short description of data set [8]: Stability of the compound by HPLC analysis. Format: physicochemical.
For data set [9], the system named is HeLa. Kind of data set: Induction of SV40 promoter-mediated luciferase gene expression in human HeLa cells at 10 to 100 uM after 24 hrs by RT-PCR analysis. Format: cell-based. The following applies: Betapolyomavirus macacae.

The structures appear in SMILES notation. Calls of active or inactive are those of the source. The rule behind the calls is not given here.

For orientation: GI50 means the concentration that inhibits growth by half.

On to `C=C(C)/C=C/c1ccc2c(C(=O)C(F)(F)F)c[nH]c2c1`, for which the Activity result was “Dose-dependent effect” in the data set with HeLa [1] and “Non-toxic” in the data set with HeLa [5]. Moreover, the inhibition result in data set [2] is “Active”. Besides, the result with HeLa [3] was Active. In data set [4], the inhibition result was “inactive”. In data set [6], the 50% growth inhibitory concentration (GI50) came to 39 µM. The result with HeLa [7] was inactive. For the same compound, the Stability entry in data set [8] was “Stable”.
`C=C(C)/C=C/c1ccc2c(C(=O)O)c[nH]c2c1`: in the data set with HeLa [3], the result was Active. Also, in the data set on HeLa [5], the Activity entry is “Non-toxic”. In addition, the GI50 in data set [6] stood at 68 µM. For the same compound, the outcome in the data set with HeLa [7] was inactive.
On to `CC(C)(O)/C=C/c1ccc2c(C(=O)C(F)(F)F)c[nH]c2c1`, for which, in data set [6], the GI50 is > 500 µM.
Consider `CC(C)CCc1ccc2c(C(=O)O)c[nH]c2c1`, for which the GI50 in [6] is > 500 µM.
With `C=C(C)/C=C/c1ccc2c(CO)c[nH]c2c1`, the GI50 in data set [6] turned out to be 79 µM.
In the case of `Oc1ccc(/C=C/c2cc(O)cc(O)c2)cc1`, the inhibition result in [2] and in data set [4] was “Active” each time. Also, in the data set with HeLa [9], the result was Active.
For the compound `CC(=O)/C=C/c1ccc2c(C(=O)C(F)(F)F)c[nH]c2c1`, the GI50 in data set [6] was 14 µM.
In the case of `C=C(C)/C=C/c1ccc2cc[nH]c2c1`, the GI50 in [6] amounted to 147 µM.
In the case of `C=C(C)/C=C/c1ccc2c(C(=O)C(F)(F)F)cn(C)c2c1`, in data set [6], the GI50 is > 500 µM.
As for `CC(O)/C=C/c1ccc2c(C(=O)C(F)(F)F)c[nH]c2c1` (stereo not given), in the data set with HeLa [3], the result was Active. The Activity entry with HeLa [5] is listed as “Non-toxic”. In [6], the GI50 was 8 µM. Further, the outcome with HeLa [7] was inactive.
